Holding throughout (assay type): functional
Experiment [1] has as its system Aspergillus niger. Description: Antifungal activity against Aspergillus niger at 50 ug after 48 hrs by agar well diffusion method. Conditions: for zone of inhibition at 50 µg/disc: read-out: DIZ.
In experiment [2] the test system is Penicillium chrysogenum. Put plainly: Antifungal activity against Penicillium chrysogenum at 100 ug after 48 hrs by agar well diffusion method. Conditions: for zone of inhibition at 100 µg/disc: read-out: DIZ.
Experiment [3] concerns Bacillus subtilis. Description: Antibacterial activity against Bacillus subtilis at 100 ug after 24 hrs by agar well diffusion method. The settings on record: read-out: DIZ.
The subject of experiment [4] is Bacillus subtilis. Description: Antibacterial activity against Bacillus subtilis at 50 ug after 24 hrs by agar well diffusion method. The settings on record: read-out: DIZ.
The subject of experiment [5] is Pseudomonas aeruginosa. Put plainly: Antibacterial activity against Pseudomonas aeruginosa at 50 ug after 24 hrs by agar well diffusion method. Conditions: for zone of inhibition at 50 µg/disc: read-out: DIZ.
For experiment [6], the system named is Klebsiella pneumoniae. Description: Antibacterial activity against Klebsiella pneumoniae at 50 ug after 24 hrs by agar well diffusion method. The settings on record: for zone of inhibition at 50 µg/disc: read-out: DIZ.
In experiment [7] the test system is Staphylococcus aureus. Put plainly: Antibacterial activity against Staphylococcus aureus at 100 ug after 24 hrs by agar well diffusion method. Conditions: read-out: DIZ.
For experiment [8], the system named is Penicillium chrysogenum. Description: Antifungal activity against Penicillium chrysogenum at 50 ug after 48 hrs by agar well diffusion method. Conditions: for zone of inhibition at 50 µg/disc: read-out: DIZ.
The subject of experiment [9] is Aspergillus niger. Put plainly: Antifungal activity against Aspergillus niger at 100 ug after 48 hrs by agar well diffusion method. The settings on record: for zone of inhibition at 100 µg/disc: read-out: DIZ.
In experiment [10] the test system is Klebsiella pneumoniae. Description: Antibacterial activity against Klebsiella pneumoniae at 100 ug after 24 hrs by agar well diffusion method. Conditions: for zone of inhibition at 100 µg/disc: read-out: DIZ.
Experiment [11] has as its system Staphylococcus aureus. Description: Antibacterial activity against Staphylococcus aureus assessed at 50 ug after 24 hrs by agar well diffusion method. The settings on record: read-out: DIZ.
For experiment [12], the system named is Pseudomonas aeruginosa. Description: Antibacterial activity against Pseudomonas aeruginosa at 100 ug after 24 hrs by agar well diffusion method. The settings on record: for zone of inhibition at 100 µg/disc: read-out: DIZ.

Calls of active or inactive are those of the source. The calls are words filed in the database; no cut-off is given here.

Regarding `O=C(/C=C/c1ccccc1)Nc1nc(-c2ccccc2)c[nH]1`, the zone of inhibition at 50 µg/disc in the experiment with Aspergillus niger [1] worked out at 19 mm; in the experiment on Bacillus subtilis [4], 22 mm; in the experiment on Pseudomonas aeruginosa [5], 16 mm; with Klebsiella pneumoniae [6], 24 mm; in the experiment with Penicillium chrysogenum [8], 21 mm; in the experiment on Staphylococcus aureus [11] it was 19 mm. Besides, the zone of inhibition at 100 µg/disc in the experiment on Penicillium chrysogenum [2] stood at 24 mm; in the experiment on Bacillus subtilis [3] it was 24 mm; in the experiment with Staphylococcus aureus [7] it was 21 mm; in the experiment with Aspergillus niger [9], 22 mm; with Klebsiella pneumoniae [10], 26 mm; in the experiment on Pseudomonas aeruginosa [12] it was 17 mm.
Take `O=C(Nc1nc(-c2ccccc2)c[nH]1)C1=NNCC1c1ccccc1` (stereo not drawn): the zone of inhibition at 50 µg/disc in the experiment on Aspergillus niger [1] came out at 13 mm; in the experiment on Bacillus subtilis [4], 15 mm; in the experiment with Pseudomonas aeruginosa [5], 12 mm; in the experiment on Klebsiella pneumoniae [6], 17 mm; in the experiment on Penicillium chrysogenum [8], 14 mm; in the experiment with Staphylococcus aureus [11], 12 mm. Also, the zone of inhibition at 100 µg/disc in the experiment on Penicillium chrysogenum [2] is 17 mm; in the experiment with Bacillus subtilis [3], 17 mm; in the experiment with Staphylococcus aureus [7], 14 mm; in the experiment on Aspergillus niger [9], 15 mm; with Klebsiella pneumoniae [10] it was 19 mm; in the experiment with Pseudomonas aeruginosa [12], 14 mm.
`Cc1ccc(-c2c[nH]c(NC(=O)c3c[nH]cc3-c3ccccc3)n2)cc1`: the zone of inhibition at 50 µg/disc in the experiment with Aspergillus niger [1] was determined as 14 mm; in the experiment on Bacillus subtilis [4], 17 mm; in the experiment on Pseudomonas aeruginosa [5], 13 mm; in the experiment with Klebsiella pneumoniae [6] it was 19 mm; in the experiment on Penicillium chrysogenum [8], 16 mm; in the experiment with Staphylococcus aureus [11] it was 14 mm. The zone of inhibition at 100 µg/disc in the experiment with Penicillium chrysogenum [2] amounted to 19 mm; in the experiment on Bacillus subtilis [3], 19 mm; in the experiment on Staphylococcus aureus [7] it was 16 mm; in the experiment on Aspergillus niger [9], 17 mm; in the experiment on Klebsiella pneumoniae [10], 21 mm; in the experiment on Pseudomonas aeruginosa [12], 14 mm.
Regarding `Cc1ccc(-c2csc(NC(=O)C3=NNCC3c3ccccc3)n2)cc1` (stereo not drawn), the zone of inhibition at 50 µg/disc with Aspergillus niger [1] turned out to be 13 mm; in the experiment on Bacillus subtilis [4], 16 mm; in the experiment on Pseudomonas aeruginosa [5] it was 12 mm; in the experiment with Klebsiella pneumoniae [6] it was 18 mm; in the experiment on Penicillium chrysogenum [8] it was 15 mm; in the experiment with Staphylococcus aureus [11], 13 mm. In addition, the zone of inhibition at 100 µg/disc in the experiment on Penicillium chrysogenum [2] came out at 18 mm; in the experiment on Bacillus subtilis [3] it was 18 mm; in the experiment on Staphylococcus aureus [7] it was 15 mm; in the experiment with Aspergillus niger [9], 16 mm; in the experiment on Klebsiella pneumoniae [10], 20 mm; with Pseudomonas aeruginosa [12], 13 mm.
As to `O=C(Nc1nc(-c2ccccc2)co1)c1c[nH]cc1-c1ccccc1`, the “diameter of the inhibition zone (DIZ)” value with Aspergillus niger [1], in the experiment with Penicillium chrysogenum [2], with Pseudomonas aeruginosa [5], with Klebsiella pneumoniae [6], in the experiment with Penicillium chrysogenum [8] and in the experiment with Aspergillus niger [9] was “inactive” each time. The “diameter of the inhibition zone (DIZ)” value in the experiment on Klebsiella pneumoniae [10] and in the experiment with Pseudomonas aeruginosa [12] was “inactive” in each case. Also, the zone of inhibition at 100 µg/disc was determined as 15 mm in the experiment with Bacillus subtilis [3] and 14 mm in the experiment with Staphylococcus aureus [7]. Besides, the zone of inhibition at 50 µg/disc in the experiment with Bacillus subtilis [4] was 13 mm; in the experiment with Staphylococcus aureus [11], 12 mm.
For `O=C(/C=C/c1ccccc1)Nc1nc(-c2ccccc2)co1`, the “diameter of the inhibition zone (DIZ)” value in the experiment on Aspergillus niger [1], with Penicillium chrysogenum [2], with Pseudomonas aeruginosa [5], in the experiment on Klebsiella pneumoniae [6], in the experiment on Penicillium chrysogenum [8] and in the experiment with Aspergillus niger [9] was “inactive” each time. For the same compound, the “diameter of the inhibition zone (DIZ)” value in the experiment with Klebsiella pneumoniae [10] and with Pseudomonas aeruginosa [12] was “inactive” in each case. Besides, the values for the zone of inhibition at 100 µg/disc in the experiment on Bacillus subtilis [3] and in the experiment with Staphylococcus aureus [7] were 16 mm and 15 mm, respectively. For the same compound, the figures for the zone of inhibition at 50 µg/disc in the experiment on Bacillus subtilis [4] and in the experiment on Staphylococcus aureus [11] were 15 mm and 12 mm, respectively.
With `Cc1ccc(-c2c[nH]c(NC(=O)/C=C/c3ccccc3)n2)cc1`, the zone of inhibition at 50 µg/disc stood at 18 mm in the experiment on Aspergillus niger [1]; 21 mm in the experiment on Bacillus subtilis [4]; 14 mm with Pseudomonas aeruginosa [5]; 23 mm in the experiment with Klebsiella pneumoniae [6]; 20 mm in the experiment with Penicillium chrysogenum [8]; 18 mm in the experiment on Staphylococcus aureus [11]. Besides, the zone of inhibition at 100 µg/disc with Penicillium chrysogenum [2] is 23 mm; in the experiment with Bacillus subtilis [3], 23 mm; with Staphylococcus aureus [7], 20 mm; with Aspergillus niger [9], 21 mm; in the experiment on Klebsiella pneumoniae [10], 25 mm; in the experiment with Pseudomonas aeruginosa [12] it was 16 mm.
As for `O=C(Nc1nc(-c2ccccc2)c[nH]1)c1c[nH]cc1-c1ccccc1`, the zone of inhibition at 50 µg/disc with Aspergillus niger [1] stood at 16 mm; in the experiment with Bacillus subtilis [4], 18 mm; with Pseudomonas aeruginosa [5], 14 mm; in the experiment on Klebsiella pneumoniae [6] it was 20 mm; in the experiment on Penicillium chrysogenum [8] it was 17 mm; in the experiment with Staphylococcus aureus [11] it was 15 mm. Besides, the zone of inhibition at 100 µg/disc is 20 mm in the experiment with Penicillium chrysogenum [2]; 20 mm in the experiment on Bacillus subtilis [3]; 17 mm in the experiment on Staphylococcus aureus [7]; 18 mm in the experiment with Aspergillus niger [9]; 22 mm with Klebsiella pneumoniae [10]; 15 mm with Pseudomonas aeruginosa [12].
On to `O=C(Nc1nc(-c2ccc(Cl)cc2)co1)c1c[nH]cc1-c1ccccc1`, for which the zone of inhibition at 50 µg/disc with Aspergillus niger [1] was determined as 24 mm; in the experiment on Bacillus subtilis [4], 17 mm; in the experiment with Pseudomonas aeruginosa [5], 18 mm; in the experiment with Klebsiella pneumoniae [6], 23 mm; with Penicillium chrysogenum [8], 25 mm; in the experiment with Staphylococcus aureus [11], 18 mm. In addition, the zone of inhibition at 100 µg/disc with Penicillium chrysogenum [2] turned out to be 28 mm; in the experiment with Bacillus subtilis [3], 21 mm; in the experiment on Staphylococcus aureus [7], 20 mm; in the experiment with Aspergillus niger [9], 26 mm; in the experiment with Klebsiella pneumoniae [10] it was 25 mm; in the experiment with Pseudomonas aeruginosa [12] it was 20 mm.
Regarding `O=C(Nc1nc(-c2ccccc2)cs1)c1n[nH]cc1-c1ccccc1`, the zone of inhibition at 50 µg/disc with Aspergillus niger [1] is 9 mm; in the experiment with Bacillus subtilis [4], 12 mm; in the experiment on Pseudomonas aeruginosa [5] it was 9 mm; with Klebsiella pneumoniae [6], 14 mm; with Penicillium chrysogenum [8], 11 mm; in the experiment on Staphylococcus aureus [11], 9 mm. Moreover, the zone of inhibition at 100 µg/disc in the experiment on Penicillium chrysogenum [2] came out at 14 mm; in the experiment with Bacillus subtilis [3], 14 mm; with Staphylococcus aureus [7], 12 mm; with Aspergillus niger [9], 12 mm; with Klebsiella pneumoniae [10], 16 mm; in the experiment with Pseudomonas aeruginosa [12], 11 mm.
For `O=C(/C=C/c1ccccc1)Nc1nc(-c2ccc(Cl)cc2)cs1`, the zone of inhibition at 50 µg/disc was determined as 31 mm in the experiment with Aspergillus niger [1]; 27 mm with Bacillus subtilis [4]; 25 mm with Pseudomonas aeruginosa [5]; 33 mm in the experiment with Klebsiella pneumoniae [6]; 32 mm in the experiment on Penicillium chrysogenum [8]; 29 mm with Staphylococcus aureus [11]. For the same compound, the zone of inhibition at 100 µg/disc stood at 35 mm in the experiment on Penicillium chrysogenum [2]; 29 mm with Bacillus subtilis [3]; 32 mm in the experiment on Staphylococcus aureus [7]; 33 mm in the experiment on Aspergillus niger [9]; 35 mm in the experiment on Klebsiella pneumoniae [10]; 27 mm with Pseudomonas aeruginosa [12].
Take `O=C(Nc1nc(-c2ccccc2)c[nH]1)c1n[nH]cc1-c1ccccc1`: the zone of inhibition at 50 µg/disc amounted to 8 mm in the experiment with Aspergillus niger [1]; 10 mm in the experiment with Bacillus subtilis [4]; 9 mm in the experiment on Pseudomonas aeruginosa [5]; 12 mm with Klebsiella pneumoniae [6]; 9 mm in the experiment on Penicillium chrysogenum [8]; 8 mm in the experiment on Staphylococcus aureus [11]. In addition, the zone of inhibition at 100 µg/disc in the experiment with Penicillium chrysogenum [2] worked out at 12 mm; in the experiment on Bacillus subtilis [3] it was 13 mm; with Staphylococcus aureus [7] it was 10 mm; in the experiment on Aspergillus niger [9], 10 mm; in the experiment with Klebsiella pneumoniae [10], 14 mm; with Pseudomonas aeruginosa [12], 11 mm.
As to `O=C(Nc1nc(-c2ccccc2)co1)c1n[nH]cc1-c1ccccc1`, the zone of inhibition at 50 µg/disc with Aspergillus niger [1] came out at 10 mm; with Bacillus subtilis [4], 13 mm; in the experiment with Pseudomonas aeruginosa [5] it was 10 mm; in the experiment on Klebsiella pneumoniae [6], 15 mm; with Penicillium chrysogenum [8], 12 mm; in the experiment with Staphylococcus aureus [11] it was 10 mm. The zone of inhibition at 100 µg/disc with Penicillium chrysogenum [2] turned out to be 15 mm; with Bacillus subtilis [3], 15 mm; with Staphylococcus aureus [7], 12 mm; in the experiment on Aspergillus niger [9] it was 13 mm; in the experiment with Klebsiella pneumoniae [10] it was 17 mm; with Pseudomonas aeruginosa [12] it was 12 mm.
Take `O=C(Nc1nc(-c2ccc(Cl)cc2)c[nH]1)C1=NNCC1c1ccccc1` (stereo not drawn): the zone of inhibition at 50 µg/disc with Aspergillus niger [1] was determined as 28 mm; in the experiment on Bacillus subtilis [4], 24 mm; with Pseudomonas aeruginosa [5], 21 mm; in the experiment on Klebsiella pneumoniae [6] it was 28 mm; in the experiment on Penicillium chrysogenum [8] it was 29 mm; in the experiment with Staphylococcus aureus [11] it was 25 mm. The zone of inhibition at 100 µg/disc in the experiment on Penicillium chrysogenum [2] was 32 mm; with Bacillus subtilis [3] it was 27 mm; in the experiment with Staphylococcus aureus [7] it was 27 mm; in the experiment on Aspergillus niger [9] it was 30 mm; in the experiment on Klebsiella pneumoniae [10] it was 30 mm; in the experiment on Pseudomonas aeruginosa [12], 24 mm.

These data come from ChEMBL document CHEMBL2146447, “Synthesis and antimicrobial activity of amido linked pyrrolyl and pyrazolyl-oxazoles, thiazoles and imidazoles” (2011).
